Assay results: patent US11111219B2, “Polysubstituted pyrimidines inhibiting the formation of prostaglandin E2, a method of production thereof and use thereof” (USTAV ORGANICKE CHEMIE A BIOCHEMIE AV CR, V.V.I., priority 2017, dated 2021)
Where “and” joins values, the source holds several entries; their conditions need not be identical. Equal values may be shown once.

What was measured:
Assay type in all cases: cell-based
biosynthesis of PGE2 = assay: Production of PGE2 in LPS-stimulated mouse peritoneal cells; conditions: for activity at 50 µM: Mus musculus, 5 h, compound 50 μmol·l^−1, with LPS 10 ng/ml, 5 hours, LPS alone = 100%, low values = strong inhibition, read-out: PGE2 remaining activity in % of LPS response (mean ± SEM); for IC50: concentration-effect experiments, 0.0004 to 25 μmol·l^−1, mouse peritoneal cells, LPS, read-out: PGE2 IC50, and 95% limits of confidence (in parentheses)
Experimental: Production of PGE2 was assayed in vitro in cultures of mouse peritoneal cells. The cells (2×10^6/mL) were stimulated with bacterial lipopolysaccharide (LPS, 10 ng/ml). Tested pyrimidine derivatives were applied at the concentration of 50 μmol.l^−1, concomitantly with LPS. Amount of PGE2 in cell supernatants was determined 5 hours after stimulation using the commercially available kit (R&D Systems). The effects of pyrimidines on PGE2 production were evaluated in percent of control values, i.e. those found after the action of LPS alone (100%). The data in Table 2 show the remaining activity; the low values thus indicate strong inhibition of PGE2 formation.
The concentrations required to inhibit PGE2 biosynthesis by 50% (so-called IC50) were determined by the analysis of concentration-effect experiments. For this purpose, the compounds were applied within the range of 0.0004 μmol.l^−1 až 25 μmol.l^−1.

mouse peritoneal cells = assay: Cell viability, lactate dehydrogenase (LDH) assay; conditions: compound 50 μmol·l^−1, 5 hours
Experimental: Cell viability was determined using the lactate dehydrogenase assay (LDH kit, Sigma-Aldrich). The mouse peritoneal cells were cultured for 5 hours in the presence of tested compounds applied at the concentration of 50 μmol.l^−1. The effects of pyrimidines were compared with the viability of cells cultured in the absence of the compounds. The later was taken as a control 100% viability.

[1] = test system: production of nitric oxide (NO); assay: Production of nitric oxide (NO) in LPS/IFN-γ-stimulated murine peritoneal cells (Griess reagent); conditions: Mus musculus; compound 50 μmol·l^−1, LPS 0.1 ng/ml + IFN-γ 5 ng/ml, nitrites at 24 h; LPS/IFN-γ alone = 100%; read-out: Production of NO in % of controls
Experimental: Similar to the PGE2 assay, the production of nitric oxide (NO) was followed under conditions in vitro using murine peritoneal cells (FIG. 1). The cells (2×10^6/ml) were cultured in presence of lipopolysaccharide (LPS, 0.1 ng/ml) and recombinant mouse interferon-γ (IFN-γ, 5 ng/ml). Effects of tested pyrimidine derivatives were screened at the concentration of 50 μmol.l^−1. The compounds were added concomitantly with LPS/IFN-γ. The concentration of nitrites in cell supernatants (a measure of NO production) was evaluated spectrophotometrically, 24 h after the priming stimuli. Griess reagent was used for this purpose. The effects of pyrimidines on NO production were evaluated in percent of control values, i.e those found after the action of LPS/IFN-γ alone (100%).

CCCCc1c(-c2ccc(OC)cc2)nc(N)nc1-c1ccc(OCc2ccccc2)cc1 [Compound 2b, 4-(4-(benzyloxy)phenyl)-5-butyl-6-(4-methoxyphenyl)pyrimidin-2-amin]
activity at 50 µM (biosynthesis of PGE2): 10.5 ± 0.1%
Cell viability in % of untreated controls (LDH assay) (mouse peritoneal cells): 100.3 ± 1.2 (n = 4) %

CCCCc1c(-c2ccccc2)nc(N)nc1-c1cc(C)c(OCc2cccc(Cl)c2)c(C)c1 [Compound 1o, 5-butyl-4-(4-((3-chlorobenzyl)oxy)-3,5-dimethylphenyl)-6-phenylpyrimidin-2-amine]
activity at 50 µM (biosynthesis of PGE2): 6.5 ± 0.4%
Cell viability in % of untreated controls (LDH assay) (mouse peritoneal cells): 102.8 ± 0.4 (n = 8) %

CCCCc1c(-c2ccccc2)nc(N)nc1-c1ccc(OCC)cc1 [Compound 1a, 5-butyl-4-(4-ethoxyphenyl)-6-phenylpyrimidin-2-amine]
activity at 50 µM (biosynthesis of PGE2): 26.3 ± 0.1%
Cell viability in % of untreated controls (LDH assay) (mouse peritoneal cells): 104.6 ± 1.3 (n = 8) %

CCCCc1c(-c2ccc(OCc3ccccc3)cc2)nc(N)nc1-c1cccc(OC)c1 [Compound 2a, 4-(4-(benzyloxy)phenyl)-5-butyl-6-(3-methoxyphenyl)pyrimidin-2-amine]
activity at 50 µM (biosynthesis of PGE2): 10 ± 2%
Cell viability in % of untreated controls (LDH assay) (mouse peritoneal cells): 43.1% and 43.1 ± 8.4 (n = 4) %

Nc1nc(-c2ccccc2)cc(-c2ccc(OCc3ccccc3)c(F)c2F)n1 [Compound 1l, 4-(4-(benzyloxy)-2,3-difluorophenyl)-6-phenylpyrimidin-2-amine]
activity at 50 µM (biosynthesis of PGE2): 5.5 ± 0.3%
Cell viability in % of untreated controls (LDH assay) (mouse peritoneal cells): 102.6 ± 3.7 (n = 4) %

CCCCc1c(-c2ccccc2)nc(N)nc1-c1ccc(OCc2ccc(Cl)cc2)cc1 [Compound 1j, 5-butyl-4-(4-((4-chlorobenzyl)oxy)phenyl)-6-phenylpyrimidin-2-amine]
activity at 50 µM (biosynthesis of PGE2): 0.7 ± 0.5%
IC50 (biosynthesis of PGE2): 77 nM
Cell viability in % of untreated controls (LDH assay) (mouse peritoneal cells): 101.2 ± 0.8 (n = 8) %

CCCCc1c(-c2ccccc2)nc(N)nc1-c1ccc(OCc2ccccc2)cc1C [Compound 1k, 4-(4-(benzyloxy)-2-methylphenyl)-5-butyl-6-phenylpyrimidin-2-amine]
activity at 50 µM (biosynthesis of PGE2): 51.1 ± 0.8%
Cell viability in % of untreated controls (LDH assay) (mouse peritoneal cells): 103.2 ± 0.5 (n = 8) %

Nc1nc(-c2ccccc2)cc(-c2ccc(OCc3ccc(Cl)cc3)cc2)n1 [Compound 1i, 4-(4-((4-chlorobenzyl)oxy)phenyl)-6-phenylpyrimidin-2-amine]
Cell viability in % of untreated controls (LDH assay) (mouse peritoneal cells): 102.2 ± 4.1 (n = 4) %

CCCCc1c(-c2ccc(OCc3ccccc3)cc2)nc(N)nc1-c1cccc(Cl)c1 [Compound 2c, 4-(4-(benzyloxy)phenyl)-5-butyl-6-(3-chlorophenyl)pyrimidin-2-amine]
activity at 50 µM (biosynthesis of PGE2): 12.6 ± 1.7%
Cell viability in % of untreated controls (LDH assay) (mouse peritoneal cells): 101.3 ± 2.0 (n = 4) %

CCCCc1c(-c2ccccc2)nc(N)nc1-c1ccc(OC(C)C)cc1 [Compound 1b, 5-butyl-4-(4-isopropoxyphenyl)-6-phenylpyrimidin-2-amine]
activity at 50 µM (biosynthesis of PGE2): 12.3 ± 0.5%
Cell viability in % of untreated controls (LDH assay) (mouse peritoneal cells): 71.2 ± 1.9 (n = 8) %

Nc1nc(-c2ccccc2)cc(-c2ccc(OCc3ccccc3)cc2)n1 [Compound 1d, 4-(4-(benzyloxy)phenyl)-6-phenylpyrimidin-2-amine]
activity at 50 µM (biosynthesis of PGE2): 0.7 ± 0.8%
Cell viability in % of untreated controls (LDH assay) (mouse peritoneal cells): 101.2 ± 0.7 (n = 4) %

CCCCc1c(-c2ccccc2)nc(N)nc1-c1ccc(OCc2ccc(OC)cc2)cc1 [Compound 1h, 5-butyl-4-(4-((4-methoxybenzyl)oxy)phenyl)-6-phenylpyrimidin-2-amine]
activity at 50 µM (biosynthesis of PGE2): 2 ± 1.5%
IC50 (biosynthesis of PGE2): 5400 nM
Cell viability in % of untreated controls (LDH assay) (mouse peritoneal cells): 104.2 ± 0.3 (n = 8) %

CCCCc1c(-c2ccccc2)nc(N)nc1-c1ccc(OCc2ccccc2)c(F)c1F [Compound 1m, 4-(4-(benzyloxy)-2,3-difluorophenyl)-5-butyl-6-phenylpyrimidin-2-amine]
activity at 50 µM (biosynthesis of PGE2): 0.03 ± 0.2%
Inhibition of PGE2 production (in words) (biosynthesis of PGE2; compound 50 μmol·l^−1): completely inhibits
IC50 (biosynthesis of PGE2): 6 nM
Cell viability in % of untreated controls (LDH assay) (mouse peritoneal cells): 103.7 ± 0.4 (n = 8) %
activity at 50 µM [1]: 84%

COc1ccc(COc2ccc(-c3cc(-c4ccccc4)nc(N)n3)cc2)cc1 [Compound 1g]
activity at 50 µM (biosynthesis of PGE2): 8.4 ± 3%
Cell viability in % of untreated controls (LDH assay) (mouse peritoneal cells): 99.6 ± 3.0 (n = 4) %

CCCCc1c(-c2ccccc2)nc(N)nc1-c1cc(C)c(OCc2ccccc2Cl)c(C)c1 [Compound 1n, 5-butyl-4-(4-((2-chlorobenzyl)oxy)-3,5-dimethylphenyl)-6-phenylpyrimidin-2-amine]
activity at 50 µM (biosynthesis of PGE2): 7.1 ± 1.9%
Cell viability in % of untreated controls (LDH assay) (mouse peritoneal cells): 103.6 ± 0.3 (n = 8) %

CCCCc1c(-c2ccccc2)nc(N)nc1-c1ccc(OCc2ccccc2)cc1 [Compound 1e, 4-(4-(benzyloxy)phenyl)-5-butyl-6-phenylpyrimidin-2-amine]
IC50 (biosynthesis of PGE2): 94 nM

CCCCc1c(-c2ccccc2)nc(N)nc1-c1ccc(OCc2cccc3ccccc23)cc1 [Compound 1f, 5-butyl-4-(4-(naphthalen-1-ylmethoxy)phenyl)-6-phenylpyrimidin-2-amine]
activity at 50 µM (biosynthesis of PGE2): 26.3 ± 5.3%
Cell viability in % of untreated controls (LDH assay) (mouse peritoneal cells): 104.8 ± 0.4 (n = 8) %

CCCCc1c(-c2ccc(Cl)cc2)nc(N)nc1-c1ccc(OCc2ccccc2)cc1 [Compound 2d, 4-(4-(benzyloxy)phenyl)-5-butyl-6-(4-chlorophenyl)pyrimidin-2-amine]
activity at 50 µM (biosynthesis of PGE2): 4.1 ± 0.7%
Cell viability in % of untreated controls (LDH assay) (mouse peritoneal cells): 96.7 ± 2.2 (n = 4) %
